# Assay results taken from patent publication US20090023697A1, “ANALGESIA METHOD” (Vernalis (R&D) Limited, priority 2003, published 2009).
# Tests used:
# [1] = system: mice; details: cited from earlier work
# [2] = alphadolone alone; cited from earlier work
# [3] = given ip or intragastrically; cited from earlier work
# [4] = dose of alphadolone used for tolerance reversal (10 mg/kg); cited from earlier work
# [5] = system: male Wistar rats; test: Rotarod running test to assess sedation after neurosteroid sustained release emulsions; details: sc sustained release emulsion; for sedation (rotarod run time) at 1 hour after injection: normal run time 120 s
# [6] = system: rats; test: Tail flick latency (TFL) response to ip morphine: effect of alphadolone on established morphine tolerance
# Source text: An observer unaware of the nature of this treatment, saline or alphadolone, made the TFL measurements.
# The TFL responses on day 1 and day 3 were combined for drug treatment and expressed as means SEM. These values were compared to see if tolerance occurred and whether co administration of alphadolone caused reversal of the tolerance effect.
# [7] = system: rats; test: Electrical current threshold (ECT) test of nociceptive threshold in the tail after alphadolone sustained release emulsion; details: 250 mg/kg alphadolone acetate sc in slow release emulsion
# [8] = system: male Wistar rats; test: Tail flick latency (TFL) response to ip morphine: effect of sustained release neurosteroid on development of morphine tolerance
# [9] = in vivo; cited from earlier work
# [10] = alphadolone 250 mg/kg, alphaxalone 80 mg/kg
compound,measurement,setting,value
CC(=O)[C@H]1CC[C@H]2[C@@H]3CC[C@H]4C[C@H](O)CC[C@]4(C)[C@H]3CC[C@]12C [allopregnanolone],prevention of morphine tolerance,[1],positive results
"CC(=O)OCC(=O)[C@H]1CC[C@H]2[C@@H]3CC[C@H]4C[C@H](O)CC[C@]4(C)[C@H]3C(=O)C[C@]12C [alphadolone, 21-acetoxy-3alpha-hydroxy-5alpha-pregnane-11, 20-dione]",antinociceptive effects in the TFL test,[2],no antinociceptive effects
same,antinociception,[3],causes antinociceptive effects
same,sedation,[3],without sedation
same,potentiation of morphine TFL effects,[4],potentiate morphine TFL effects
same,sedation (rotarod run time) later than 1 hour after injection,[5]; alphadolone 250 mg/kg,no sedation
same,sedation (rotarod run time) at 1 hour after injection,[5]; [10],small but significant amount of sedation
same,"TFL response, day 3 (post tolerance), morphine co administered with alphadolone","[6]; 6.4 mg/kg morphine ip plus alphadolone 10 mg/kg after two days morphine emulsion, mean SEM, n=9",78.6 9.8 % MPE
same,day 3 response compared with day 1 response before tolerance,"[6]; morphine 6.4 mg/kg ip co administered with alphadolone 10 mg/kg, p>0.05 one way ANOVA",equal to that produced on day 1
same,loss of consciousness / looking sedated after the injection,[7],did not cause any rat to lose consciousness or in any way to look sedated
same,time by which nociceptive threshold (ECT) was significantly increased,[7]; n=10,one
same,time nociceptive threshold (ECT) remained elevated,"[7]; n=10, readings up to 44 hours",24 h
same,sedation observed during the course of the tolerance experiment,"[8]; sc emulsions with morphine emulsion, alphadolone 250 mg/kg/day, alphaxalone 80 mg/kg/day",no overt signs of sedation
same,"post treatment TFL values (6.4 mg/kg ip morphine, day 3) compared with vehicle treated controls","[8]; two days sc morphine emulsion plus sc emulsion of alphadolone 250 mg/kg/day or alphaxalone 80 mg/kg/day, Students t test",statistically significant difference
CC(=O)[C@H]1CC[C@H]2[C@@H]3CC[C@H]4C[C@H](O)CC[C@]4(C)[C@H]3C(=O)C[C@]12C [alphaxalone],antinociception,[3],no antinociception
same,sedation,[3],causes sedation
same,potency as an anaesthetic compared with alphadolone,[9],three
same,sedation (rotarod run time) at 1 hour after injection,[5]; [10],significantly greater than that caused by alphadolone
same,duration of significant sedative effects (rotarod),[5]; alphaxalone 80 mg/kg,four
CN1CC[C@]23c4c5ccc(O)c4O[C@H]2[C@@H](O)C=C[C@H]3[C@H]1C5 [morphine],"tail flick latency response, day 1 (pre tolerance)","[6]; immediate release morphine 6.4 mg/kg ip, both groups, n=9",approximately 80 % MPE
CC(=O)C1CCC2C3CC=C4CC(OS(=O)(=O)O)CCC4(C)C3CCC12C (centres unmarked) [pregnenolone sulphate],prevention of morphine tolerance,[1],positive results
CC(=O)[C@H]1CC[C@H]2[C@@H]3CCC4=CC(=O)CC[C@]4(C)[C@H]3CC[C@]12C [progesterone],prevention of morphine tolerance,[1],positive results
dehydroepiandrosterone sulphate,prevention of morphine tolerance,[1],positive results
